Reference: publication PMC3162996 (Journal of natural products, 2011)
Entries after “also recorded” stand apart in the source; their conditions may differ.

What was measured:
[1] = Floridian collections of Lyngbya confervoides; ref [6],[7]; cited from earlier work
[2] = tested on: transcription factor AP-1; assay: AP-1 assay; type: cell-based; settings: HEK293T AP-1 β-lactamase reporter; 1 h pre-incubation, then TPA, 18 h

Substance	cytotoxicity (in words) [1]	inhibitory activity against AP-1 (in words) [2]
grassypeptolide C [compound 5]	cytotoxic	–
Grassypeptolide G [compound 2]	–	moderately active; also recorded: moderate inhibitory activity
Grassypeptolide F [compound 1]	–	moderately active; also recorded: moderate inhibitory activity
